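Exposure lasted 48 hours, with cells grown in 96-well plates and compounds tested at five concentrations. At the GI50, growth is halved.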 Activity calls are given as the source filed them. Rule as the data show it: active = GI50 up to about 1.1 µM and inactive = higher.
Experiments:
Assay in all cases: growth of human tumour cells (NCI), 48 h
NCI-H460 = test system: NCI-H460
OVCAR-8 = test system: OVCAR-8
PC-3 = test system: PC-3
NCI-H23 = test system: NCI-H23
RXF 393 = test system: RXF 393
SN12C = test system: SN12C
MDA-MB-435 = test system: MDA-MB-435
HOP-92 = test system: HOP-92
DMS-114 = test system: DMS-114
MDA-MB-231 = test system: MDA-MB-231
TK-10 = test system: TK-10
U-251 = test system: U-251
NCI/ADR-RES = test system: NCI/ADR-RES
HCC 2998 = test system: HCC 2998
HCT-15 = test system: HCT-15
HCT-116 = test system: HCT-116
EKVX = test system: EKVX
SNB-19 = test system: SNB-19
OVCAR-5 = test system: OVCAR-5
M14 = test system: M14

Row | SMILES | GI50 (NCI-H460) | GI50 (OVCAR-8) | GI50 (PC-3) | GI50 (NCI-H23) | GI50 (RXF 393) | GI50 (SN12C) | GI50 (MDA-MB-435) | GI50 (HOP-92) | GI50 (DMS-114) | GI50 (MDA-MB-231) | GI50 (TK-10) | GI50 (U-251) | GI50 (NCI/ADR-RES) | GI50 (HCC 2998) | GI50 (HCT-15) [µM] | GI50 (HCT-116) | GI50 (EKVX) | GI50 (SNB-19) | GI50 (OVCAR-5) | GI50 (M14)
1 | CCCN(CCCCC(NC(C)=O)C(=O)NCc1ccccc1)C(=O)N(CCCl)N=O (stereo not drawn) | 10.1 µM (inactive) | > 89.7 µM (inactive) | 32.8 µM (inactive) | 49.9 µM (inactive) | 66.1 µM (inactive) | 58.3 µM (inactive) | > 100 µM (inactive) | 43.8 µM (inactive) | 98.2 µM (inactive) | > 100 µM (inactive) | > 100 µM (inactive) | 15.8 µM (inactive) | 31.6 µM (inactive) | > 58.9 µM (inactive) | > 100 | 60.3 µM (inactive) | > 100 µM (inactive) | 31.9 µM (inactive) | > 100 µM (inactive) | 59.6 µM (inactive)
2 | Cc1nc2ccccc2c(=O)n1NC(=S)Nc1ccc(Cl)cc1[N+](=O)[O-] | > 100 µM (inactive) | > 100 µM (inactive) | > 100 µM (inactive) | > 100 µM (inactive) | > 100 µM (inactive) | > 100 µM (inactive) | > 100 µM (inactive) | > 100 µM (inactive) | > 100 µM (inactive) | > 100 µM (inactive) | > 100 µM (inactive) | > 100 µM (inactive) | > 100 µM (inactive) | – | > 100 | > 100 µM (inactive) | 36.2 µM (inactive) | > 72.8 µM (inactive) | – | > 100 µM (inactive)
3 | Oc1cc(-c2cccc(F)c2)nc2cc3c(cc12)OCO3 | 0.07 µM (active) | 0.0347 µM (active) | 0.0473 µM (active) | 0.294 µM (active) | 0.0546 µM (active) | 0.129 µM (active) | 0.0112 µM (active) | 0.272 µM (active) | 0.239 µM (active) | 0.141 µM (active) | 0.879 µM (active) | 0.0757 µM (active) | 0.0199 µM (active) | 0.0705 µM (active) | 0.0711 | 0.0405 µM (active) | 6.56 µM (inactive) | 0.124 µM (active) | 0.345 µM (active) | 0.0402 µM (active)
